As usually defined, the EC50 is the concentration at which the effect is half-maximal.

human activated kallikrein enzyme (plasma kallikrein), sequence (P03952 391-638): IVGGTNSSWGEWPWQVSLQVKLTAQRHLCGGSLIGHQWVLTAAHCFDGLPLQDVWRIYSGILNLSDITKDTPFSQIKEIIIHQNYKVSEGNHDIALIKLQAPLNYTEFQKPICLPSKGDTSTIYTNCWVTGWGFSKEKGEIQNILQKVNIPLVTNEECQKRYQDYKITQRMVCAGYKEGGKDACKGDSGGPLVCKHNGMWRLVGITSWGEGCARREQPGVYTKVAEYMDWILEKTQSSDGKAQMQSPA
human activated kallikrein enzyme (plasma kallikrein), sequence (P03952 20-390 partner): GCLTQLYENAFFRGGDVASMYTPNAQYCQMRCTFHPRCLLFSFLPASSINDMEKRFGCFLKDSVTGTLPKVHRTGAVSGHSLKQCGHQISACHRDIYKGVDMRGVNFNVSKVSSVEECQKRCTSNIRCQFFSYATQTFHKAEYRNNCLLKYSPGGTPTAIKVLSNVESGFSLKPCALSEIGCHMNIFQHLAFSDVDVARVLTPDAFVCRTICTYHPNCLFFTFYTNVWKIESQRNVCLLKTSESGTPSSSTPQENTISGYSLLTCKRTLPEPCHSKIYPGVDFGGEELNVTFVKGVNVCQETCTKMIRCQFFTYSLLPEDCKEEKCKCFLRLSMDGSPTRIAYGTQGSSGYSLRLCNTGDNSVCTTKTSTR

One assay addresses human activated kallikrein enzyme (plasma kallikrein) (Homo sapiens (Human), UniProt P03952). Put plainly: Inhibition of human activated plasma kallikrein, fluorogenic peptide substrate assay, 500 pM enzyme format. To be noted: 500 pM activated kallikrein enzyme, 300 uM Pro-Phe-Arg-7-amido-4-methylcoumarin substrate, 30 min preincubation, 10 min at RT; read-out: Primary Dose Response Assay: Average EC50. In kind it is biochemical. In a few lines: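 Buffer 20 mM Tris pH 7.5, EDTA, NaCl, PEG-400, Triton X-100; 300 uM Pro-Phe-Arg-AMC; enzyme–inhibitor preincubation 30 min RT. Format one: 500 pM kallikrein, 10 min RT reaction; format two: 5 pM kallikrein, 18 h RT reaction. Fluorescence read at 460 nm (380 nm excitation).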
As to `O=C(NCc1ncn2ccc(Cl)cc12)c1cnn(Cc2cn3cc(C4CC4)cc(Cc4nnco4)c3n2)c1` [Example I-155, 1-((8-((1,3,4-oxadiazol-2-yl)methyl)-6-cyclopropylimidazo[1,2-a]pyridin-2-yl)methyl)-N-((7-chloroimidazo[1,5-a]pyridin-1-yl)methyl)-1H-pyrazole-4-carboxamide], the EC50 was less than 1 nM.

`COC(=O)c1ccc2nc(Cn3cc(C(=O)NCc4ncn5ccc(Cl)cc45)cn3)cn2c1` [Example I-91, methyl 2-((4-(((7-chloroimidazo[1,5-a]pyridin-1-yl)methyl)carbamoyl)-1H-pyrazol-1-yl)methyl)imidazo[1,2-a]pyridine-6-carboxylate]: the EC50 fell in the range of 10 to 100 nM.

As for `O=C(NCc1ncn2ccc(Cl)c(F)c12)c1cn(Cc2cc3ncc(C4CC4)cn3n2)nn1` [Example I-209, N-((7-chloro-8-fluoroimidazo[1,5-a]pyridin-1-yl)methyl)-1-((6-cyclopropylpyrazolo[1,5-a]pyrimidin-2-yl)methyl)-1H-1,2,3-triazole-4-carboxamide], the EC50 fell in the range of 1 to 10 nM.

`O=C(NCc1ncn2ccc(Cl)cc12)c1nnn(Cc2cn3cc(C4CC4)ccc3n2)n1` [Example I-110, N-((7-chloroimidazo[1,5-a]pyridin-1-yl)methyl)-2-((6-cyclopropylimidazo[1,2-a]pyridin-2-yl)methyl)-2H-tetrazole-5-carboxamide]: the EC50 is less than 1 nM.

As to `O=C(NCc1ncn2ccc(Cl)c(F)c12)c1cn(Cc2cn3nccc(-n4cnnc4)c3n2)nn1` [Example I-294, 1-((8-(4H-1,2,4-triazol-4-yl)imidazo[1,2-b]pyridazin-2-yl)methyl)-N-((7-chloro-8-fluoroimidazo[1,5-a]pyridin-1-yl)methyl)-1H-1,2,3-triazole-4-carboxamide], the EC50 lay in the range of 10 to 100 nM.

With `CC(C)(O)CCc1cc(C2CC2)cn2cc(Cn3cc(C(=O)NCc4ncn5ccc(Cl)cc45)cn3)nc12` [Example I-119, N-((7-chloroimidazo[1,5-a]pyridin-1-yl)methyl)-1-((6-cyclopropyl-8-(3-hydroxy-3-methylbutyl)imidazo[1,2-a]pyridin-2-yl)methyl)-1H-pyrazole-4-carboxamide], the half-maximal effective concentration (EC50) was less than 1 nM.

For the compound `O=C(O)c1ccc(-n2c(Cn3cc(C(=O)NCc4ncn5ccc(Cl)c(F)c45)nn3)cc3cc(C4CC4)ccc32)cc1` [Example I-259, 4-(2-((4-(((7-chloro-8-fluoroimidazo[1,5-a]pyridin-1-yl)methyl)carbamoyl)-1H-1,2,3-triazol-1-yl)methyl)-5-cyclopropyl-1H-indol-1-yl)benzoic acid], the EC50 was in the range of 1 to 10 nM.

Turning to `CCOC(=O)CCc1cc(C2CC2)cn2cc(Cn3cc(C(=O)NCc4ncn5ccc(Cl)c(F)c45)nn3)nc12` [Example I-163a, ethyl 3-(2-((4-(((7-chloro-8-fluoroimidazo[1,5-a]pyridin-1-yl)methyl)carbamoyl)-1H-1,2,3-triazol-1-yl)methyl)-6-cyclopropylimidazo[1,2-a]pyridin-8-yl)propanoate], the EC50 is less than 1 nM.

For `O=C(NCc1ncn2ccc(Cl)c(F)c12)c1cn(Cc2cn3cc(C4CC4)cc(-n4cnnc4)c3n2)nn1` [Example I-180, N-((7-chloro-8-fluoroimidazo[1,5-a]pyridin-1-yl)methyl)-1-((6-cyclopropyl-8-(4H-1,2,4-triazol-4-yl)imidazo[1,2-a]pyridin-2-yl)methyl)-1H-1,2,3-triazole-4-carboxamide], the EC50 is less than 1 nM.

As for `O=C(NCc1ncn2ccc(Cl)c(F)c12)c1cn(Cc2cn3cc(C4CC4)cc(CN4CCCC4)c3n2)nn1` [Example I-295, N-((7-chloro-8-fluoroimidazo[1,5-a]pyridin-1-yl)methyl)-1-((6-cyclopropyl-8-(pyrrolidin-1-ylmethyl)imidazo[1,2-a]pyridin-2-yl)methyl)-1H-1,2,3-triazole-4-carboxamide], the EC50 was less than 1 nM.

In the case of `O=C(NCc1ncn2ccc(Cl)cc12)c1cnn(Cc2cn3c(Cl)c(C4CC4)ccc3n2)c1` [Example I-23, 1-((5-chloro-6-cyclopropylimidazo[1,2-a]pyridin-2-yl)methyl)-N-((7-chloroimidazo[1,5-a]pyridin-1-yl)methyl)-1H-pyrazole-4-carboxamide], the EC50 was less than 1 nM.

In the case of `O=C(NCc1ncn2ccc(Cl)c(F)c12)c1cn(Cc2cn3cc(C4CC4)cc(-n4cccn4)c3n2)nn1` [Example I-220, N-((7-chloro-8-fluoroimidazo[1,5-a]pyridin-1-yl)methyl)-1-((6-cyclopropyl-8-(1H-pyrazol-1-yl)imidazo[1,2-a]pyridin-2-yl)methyl)-1H-1,2,3-triazole-4-carboxamide], the EC50 was less than 1 nM.

On to `O=C(NCc1ncn2ccc(Br)c(F)c12)c1cn(Cc2cn3cc(C4CC4)cc(F)c3n2)nn1` [Example I-200, N-((7-bromo-8-fluoroimidazo[1,5-a]pyridin-1-yl)methyl)-1-((6-cyclopropyl-8-fluoroimidazo[1,2-a]pyridin-2-yl)methyl)-1H-1,2,3-triazole-4-carboxamide], for which the EC50 was less than 1 nM.

Consider `CC1(c2ccc3nc(Cn4cc(C(=O)NCc5ncn6ccc(Cl)cc56)cn4)cn3c2)CC1` [Example I-10, N-((7-chloroimidazo[1,5-a]pyridin-1-yl)methyl)-1-((6-(1-methylcyclopropyl)imidazo[1,2-a]pyridin-2-yl)methyl)-1H-pyrazole-4-carboxamide], for which the EC50 is less than 1 nM.

For `COCCc1cc(C2CC2)cn2cc(Cn3cc(C(=O)NCc4ncn5ccc(Cl)cc45)cn3)nc12` [Example I-125, N-((7-chloroimidazo[1,5-a]pyridin-1-yl)methyl)-1-((6-cyclopropyl-8-(2-methoxyethyl)imidazo[1,2-a]pyridin-2-yl)methyl)-1H-pyrazole-4-carboxamide], the EC50 was less than 1 nM.

With `O=C(NCc1ncn2ccc(Cl)c(F)c12)c1cn(Cc2nc3cc(C4CC4)cc(Cl)n3n2)nn1` [Example I-255, 1-((5-chloro-7-cyclopropyl-[1,2,4]triazolo[1,5-a]pyridin-2-yl)methyl)-N-((7-chloro-8-fluoroimidazo[1,5-a]pyridin-1-yl)methyl)-1H-1,2,3-triazole-4-carboxamide], the EC50 is less than 1 nM.

As for `O=C(O)CC(c1cn2cc(C3CC3)ccc2n1)n1cc(C(=O)NCc2ncn3ccc(Cl)c(F)c23)nn1` (stereo not drawn) [Example I-227b, 3-(4-(((7-chloro-8-fluoroimidazo[1,5-a]pyridin-1-yl)methyl)carbamoyl)-1H-1,2,3-triazol-1-yl)-3-(6-cyclopropylimidazo[1,2-a]pyridin-2-yl)propanoic acid], the EC50 fell in the range of 100 to 2000 nM.

In the case of `CC(NC(=O)c1cn(C(C)c2cn3cc(C4CC4)ccc3n2)nn1)c1ncn2ccc(Cl)c(F)c12` (stereo not drawn) [Example I-278, N-(1-(7-chloro-8-fluoroimidazo[1,5-a]pyridin-1-yl)ethyl)-1-(1-(6-cyclopropylimidazo[1,2-a]pyridin-2-yl)ethyl)-1H-1,2,3-triazole-4-carboxamide], the half-maximal effective concentration (EC50) lay in the range of 100 to 2000 nM.

For `O=C(NCc1ncn2ccc(Cl)c(F)c12)c1cn(Cc2cc3cc(C4CC4)cc(C(F)(F)F)n3n2)nn1` [Example I-231, N-((7-chloro-8-fluoroimidazo[1,5-a]pyridin-1-yl)methyl)-1-((5-cyclopropyl-7-(trifluoromethyl)pyrazolo[1,5-a]pyridin-2-yl)methyl)-1H-1,2,3-triazole-4-carboxamide], the EC50 is less than 1 nM.

`O=C(NCc1ncn2ccc(Cl)cc12)c1ccnc(Cc2ccc3ncc(Cl)cc3c2)c1` [Example I-3, N-((7-chloroimidazo[1,5-a]pyridin-1-yl)methyl)-2-((3-chloroquinolin-6-yl)methyl)isonicotinamide]: the EC50 was 10 to 100 nM.

As for `O=C(O)CCc1nn(Cc2cn3cc(C4CC4)ccc3n2)cc1C(=O)NCc1ncn2ccc(Cl)cc12` [Example I-73, 3-(4-(((7-chloroimidazo[1,5-a]pyridin-1-yl)methyl)carbamoyl)-1-((6-cyclopropylimidazo[1,2-a]pyridin-2-yl)methyl)-1H-pyrazol-3-yl)propanoic acid], the EC50 was less than 1 nM.

On to `N#CNC(=NCc1ncn2ccc(Cl)cc12)c1cnn(Cc2cn3cc(C4CC4)ccc3n2)c1` [Example I-123, N′-((7-chloroimidazo[1,5-a]pyridin-1-yl)methyl)-N-cyano-1-((6-cyclopropylimidazo[1,2-a]pyridin-2-yl)methyl)-1H-pyrazole-4-carboximidamide], for which the EC50 was in the range of 1 to 10 nM.

Consider `O=C(NCc1ncn2ccc(Cl)c(F)c12)c1cn(Cc2cn3ncc(C4CC4)cc3n2)nn1` [Example I-217, N-((7-chloro-8-fluoroimidazo[1,5-a]pyridin-1-yl)methyl)-1-((7-cyclopropylimidazo[1,2-b]pyridazin-2-yl)methyl)-1H-1,2,3-triazole-4-carboxamide], for which the EC50 was in the range of 1 to 10 nM.

For `CS(=O)(=O)c1cc(C2CC2)cn2cc(Cn3cc(C(=O)NCc4ncn5ccc(Cl)cc45)cn3)nc12` [Example I-159, N-((7-chloroimidazo[1,5-a]pyridin-1-yl)methyl)-1-((6-cyclopropyl-8-(methylsulfonyl)imidazo[1,2-a]pyridin-2-yl)methyl)-1H-pyrazole-4-carboxamide], the EC50 is less than 1 nM.

For the compound `CC(C)(Cc1cc(C2CC2)cn2cc(Cn3cc(C(=O)NCc4ncn5ccc(Cl)cc45)nn3)nc12)C(=O)O` [Example I-170, 3-(2-((4-(((7-chloroimidazo[1,5-a]pyridin-1-yl)methyl)carbamoyl)-1H-1,2,3-triazol-1-yl)methyl)-6-cyclopropylimidazo[1,2-a]pyridin-8-yl)-2,2-dimethylpropanoic acid], the EC50 was less than 1 nM.

The assay is the same for the next values; noted with them: comparative compounds (Table II); assay format with 500 pM (500 μM in the source) activated kallikrein; read-out: Primary Dose Response Assay: Average EC50.
On to `O=C(NCc1nsc2ccc(Cl)cc12)c1cnn(Cc2cn3cc(C4CC4)ccc3n2)c1` [reference compound], for which the EC50 fell in the range of 10 to 100 nM.

For `O=C(NCc1nnc2ccc(Cl)cn12)c1cnn(Cc2cn3cc(C4CC4)ccc3n2)c1` [reference compound], the EC50 was in the range of 100 to 2000 nM.

The record behind these values is patent US10730874B2 (Shire Human Genetic Therapies, Inc., priority 2018, dated 2020).
